Data set [1] in a line: Octanol-phosphate buffered saline partition coefficient, log K of the compound. The class given is physicochemical. The conditions noted are these: for logD: octanol/phosphate buffered saline, read-out: log K.
Data set [2] in a line: Solubility of the compound in DMSO. It counts as physicochemical.
Data set [3] is described as follows: Solubility of the compound in methanol. The class given is physicochemical.
The species entered for data set [4] is Gallus gallus. In words: Binding affinity to monoamine transporter in dissociated chick brain stem cells assessed as receptor-mediated compound uptake. The class given is cell-based.
The test system of data set [5] is HEK293. In words: Binding affinity to human monoamine transporter expressed in HEK293 cells assessed as receptor-mediated compound uptake. The class given is cell-based.
For data set [6], the system named is Rattus norvegicus. In words: Toxicity in Sprague-Dawley rat assessed as change in mean breathing rate at 0.25 mM administered for 30 seconds through polyethylene cannula in carotid artery. The class given is organism-based. The settings on record: in vivo, other, 250 µM.
The subject of data set [7] is MLO-Y4. In words: Binding affinity to monoamine transporter in mouse MLO-Y4 cells assessed as receptor-mediated compound uptake at 20 uM by confocal microscopic analysis in presence of serotonin reuptake inhibitor clomipramine. The class given is cell-based.
The test system of data set [8] is Rattus norvegicus. In words: Toxicity in Sprague-Dawley rat assessed as change in mean breathing rate at 0.23 to 1 mM administered for 1 to 3 mins through polyethylene cannula in carotid artery measured after 600 seconds. The class given is organism-based. The settings on record: in vivo, other, 10 min, 1000 µM.
A short description of data set [9]: Drug uptake in Sprague-Dawley rat blood platelet cells administered through intra-arterial injection by fluorescence microscopy analysis. It counts as ADME, cell-based. The conditions noted are these: in vivo, other.
Data set [10] concerns Brain. In words: Drug uptake in Sprague-Dawley rat brain administered through intra-arterial injection by fluorescence microscopy analysis. The class given is ADME, tissue-based. The conditions noted are these: in vivo, other.
The test system of data set [11] is Rattus norvegicus. In words: Toxicity in Sprague-Dawley rat assessed as change in mean breathing rate at 0.23 to 1 mM administered for 1 to 3 mins through polyethylene cannula in carotid artery measured after 200 to 400 seconds. It counts as organism-based. The conditions noted are these: in vivo, other, 1000 µM.
Data set [12] concerns Rattus norvegicus. In words: Toxicity in Sprague-Dawley rat assessed as change in blood pressure at 0.25 mM administered for 30 seconds through polyethylene cannula in carotid artery. The class given is organism-based. The conditions noted are these: in vivo, other, 250 µM.
In data set [13] the test system is Rattus norvegicus. In words: Toxicity in Sprague-Dawley rat assessed as prolonged reduction in NRM neurons activity at 0.23 to 1 mM administered for 1 to 3 mins through polyethylene cannula in carotid artery measured immediately post dose. It counts as organism-based. The conditions noted are these: in vivo, other, 1000 µM.
The subject of data set [14] is Rattus norvegicus. In words: Toxicity in Sprague-Dawley rat assessed as change in heart rate at 0.25 mM administered for 30 seconds through polyethylene cannula in carotid artery. The class given is organism-based. The conditions noted are these: in vivo, other, 250 µM.
Data set [15] relates to Rattus norvegicus. In words: Toxicity in Sprague-Dawley rat assessed as prolonged reduction in NRM neurons activity at 0.23 to 1 mM administered for 1 to 3 mins through polyethylene cannula in carotid artery measured 30 mins post dose. The conditions noted are these: in vivo, other, 0.5 h, 1000 µM. It counts as organism-based.

Activity calls are given as the source filed them. The calls are words filed in the database; no cut-off is given here.

For `NCCn1cc2c(nc1=O)Nc1ccccc1S2`, the logD in [1] was found to be 0.65. The solubility entry in data set [2] and in data set [3] was “soluble” each time. Further, the result in data set [4] and in [5] was Active.
`NCCOc1cccc2c(O)cccc12`: the logD in data set [1] was determined as 0.1. The solubility result in data set [2] and in data set [3] was “soluble” each time. Moreover, the result in [4] and in data set [5] was inactive.
For `NCCc1c2ccccc2cc2ccccc12`, in data set [1], the logD was found to be 1.1. The solubility result in data set [2] and in [3] was “soluble” in each case. Besides, the result in data set [4] and in data set [5] was inactive.
On to `CN[C@H]1CC[C@@H](c2ccc(Cl)c(Cl)c2)c2ccccc21` [SERTRALINE], for which, in [1] (octanol/water), the “log K” value came out at 1.37.
Take `NCCN1C(=O)c2cccc3c(N)ccc(c23)C1=O`: the Activity entry is “Non-toxic” in [6]; “Non-toxic” in data set [8]; “Non-toxic” in data set [11]; “Non-toxic” in [12]; “Toxic” in [13]; “Non-toxic” in data set [14]. The Activity result in [15] is given as “Non-toxic”. In addition, in data set [1], the logD was -0.58. The result in [7] was inactive. The solubility entry in data set [2] and in [3] was “soluble” throughout. The results for the Drug uptake result in data set [9] and in data set [10] were “Active” and “Not Active”, respectively. Moreover, the result in data set [4] and in [5] was Active.
As to `NCCc1ccc2ccc3cccc4ccc1c2c34`, in data set [1], the logD worked out at 1.42. In addition, the solubility entry in data set [2] and in [3] was “soluble” in each case. In addition, the outcome in data set [4] and in [5] was inactive.
`COc1cccc2c(OCCN)cccc12`: the logD in [1] came out at 0.28. Besides, the solubility entry in data set [2] and in [3] was “soluble” throughout. Also, the result in [4] and in data set [5] was inactive.
For `NCCc1ccc(O)c(O)c1` [DOPAMINE], in data set [1], the logD was -2.38.
The same measure, in the same setting: the figure for `NCCc1c[nH]c2ccc(O)cc12` [SEROTONIN] is -1.57.
